Data on three molecules can be found in patent US20220087952A1, “ANTI-APICOMPLEXAN COMPOSITIONS” (priority 2019, published 2022).

SMILES strings stand for the structures.

In data set [1] the test system is Eimeria arloingi oocyst extracted from goat feces. Description: In-vitro oocyst sporulation assay (Example 2). It counts as cell-based. The note with it: in Capra hircus, read-out: sporulation impairment (inhibition of sporulation) compared to control. How it is done:
Eimeria-infected feces were collected from goats and stored at 4° C. Later, 3 grams of feces were mixed with 42 ml of tap water. The sample was homogenized and passed through a mesh, after which the filtered liquid was collected into 50 ml tubes. The liquid was then washed three times with cold tap water and centrifuged (1,700 G, 5 minutes, 20° C.). In each wash, the supernatant was carefully removed and approximately 30 to 40 ml of cold water was added. After the last wash, the water was removed and replaced with saturated sugar flotation solution (500 gr sucrose in 320 ml double distilled water), wherein each tube was filled with up to 45 ml of the sugar flotation solution. Each tube was centrifuged twice, wherein after each round of centrifugation, the ring-shaped phase formed on the top of the sugar solution was collected (about 1-2 ml collected after each round) and preserved in a 50 ml plastic tube.
The plastic tube was filled with cold water and centrifuged again. Oocysts were found in the sediment after centrifugation. The water was gently removed and the concentration of the oocysts was evaluated. The oocysts were then stored at 4° C. until use (the use of unsporulated oocysts that are older than two weeks was avoided). It is noted that a 2% potassium dichromate solution may be used for conservation. The unsporulated oocytes were washed in cold phosphate buffered saline (PBS, X10) before use in order to remove potassium dichromate (if used). The concentration of the oocysts was adjusted to approximately 30,000/ml.
Extract was prepared according to Example 1 above. Extract can be mixed with Phosphate buffer saline (PBS, X1, w:w, 1:10) if not perfectly soluble in water.
Each assay was in triplicates for each concentration of extract and gallic acid purchased at Sigma. In addition, six concentrations of gallic acid (50, 150, 250, 350, 450, 550 ppm) were added to 2000 and 4000 ppm of the invention extract to check synergism of gallic acid and the extract on impairment of sporulation. […]

Data set [2] has as its system Eimeria spp. (Paracox 5 at twenty-fold dose). Description: Eimeria-infected chicks given supplemented drinking water (Example 5). It counts as in vivo. The following applies: for Body weight of chicks (Means ± SE) / Average daily gain / Oocyst counts in droppings: C uninfected, T infected, AS % antisolvent, GA ppm gallic acid in water. On the procedure:
160 chicks allotted to 8 treatments, encompassing two groups of uninfected birds and six groups of Eimeria-infected birds, were tested. Birds were administered water treatment from 7 days of age and infected when 10-days old.
Inoculation was individually, per os, by using a dose of Paracox 5, a live attenuated anticoccidial vaccine including administered at the twenty-fold the recommended dose (Table 2), in a volume of 1 ml, when chicks were 10 days old. Uninfected birds were given the same volume of saline. Eimeria spp were as in Table 2.
(§1) Water was supplied in 3-liter poultry troughs that were re-filled when needed. Tap water was initially given and water supplementation was initiated three days after chicks' arrival. Water treatments for the uninfected (C) birds were no antisolvent and no gallic acid (C_AS0%_GA0) and 1% antisolvent with 500 ppm of gallic acid (C_AS1%_GA500).
(§2) Water treatments for the infected (T) birds were bi-factorial with 3 levels of antisolvent (AS; 0, 0.5, and 1%) and two levels of gallic acid (GA; 0 and 500 ppm) resulting in 6 groups: […], T_AS0.5%_GA0, T_AS1%_GA0, T_AS0.5%_GA0, T_AS0.5% _GA500, and T_AS1%_GA500.
(§3) Birds were wing-tagged and weighed on infection day and then, 7 days after infection. Half of the birds were weighed and humanely euthanized by exposure to CO2 on day 14 after infection and the second half on day 17 after infection. Water intake was recorded. Droppings were collected from a 1 m^2 paper sheet placed in each group 12 h before each weighing and kept at 4° C. until oocysts were counted under a grated microscope at ×100 and ×400 at days 0, and 7.
No existing method, based on mono-species Eimeria infection, was satisfactory. The duodenum was examined at three sites (proximal, medial, distal) and a separate score was recorded for each. In contrast, only one score was recorded for the ileum-jejunum, and one for the caeca. Organ scores were termed D (average of 3 sites along the duodenum), J, and C. Three composite scores were established: a. sum of the average duodenal score, the jejunal score and the caecal score; b. sum of the maximal duodenal, jejunal and caecal scores; c. number of lesion-affected organs (1-3).
Data for body weight (BW) and average daily gain was log-transformed in order to homogenize variances. The C_AS0%_GA0 and […] in order to assess the effect of infection. The C_AS0%_GA0 and the C_AS1%_GA500 were compared to evaluate possible toxicity due to water treatment. All groups encompassing bi-factorial levels of AS and GA were compared by bi-factorial ANOVA.
For the analysis of lesions, for each treatment and slaughter day, the Wilcoxon Rank Sum Test was run. Then, using the Iman-Connover method, a rank transformation was done on original data and a two-way ANOVA was run on the ranked data. The treatment x day interaction was significant for J. Sum DJC, and #organs affected and Pairwise comparisons were made by Tukey test.

The nature of data set [3]: Water intake and toxicity of supplemented drinking water in chicks (Example 5). Type of data set: in vivo.
Text: as §1, §2, §3
Data for body weight (BW) and average daily gain was log-transformed in order to homogenize variances. The C_AS0%_GA0 and […] in order to assess the effect of infection. The C_AS0%_GA0 and the C_AS1%_GA500 were compared to evaluate possible toxicity due to water treatment. […]

Data set [4] concerns Eimeria spp. (Paracox 5 at twenty-fold dose). Description: Eimeria-infected chicks given supplemented drinking water (Example 5). It counts as in vivo. The following applies: d 14 relative to infection day; C uninfected, T infected; AS % antisolvent, GA ppm gallic acid in water.

Usually inhibition stands for the percentage by which the read-out fell short of the control. Take `O=C(O)/C=C/c1ccc(O)c(O)c1` [caffeic acid, Caffeic acid]: the inhibition at 50 µg/mL in data set [1] is 43%.
Same read-out and setting: the result for `COc1cc(C(=O)O)ccc1O` [vanillic acid] reads 23%.
In the case of `O=C(O)c1cc(O)c(O)c(O)c1` [Gallic acid, gallic acid], in data set [1], the inhibition at 50 µg/mL amounted to 25%. Further, the “Body weight of chicks (Means ± SE)” value in data set [2] (D 17 relative to infection day) stood at 1290.0 ± 83.4 ab; in data set [2] (d 0 relative to infection day), 168.9 ± 4.3; in data set [2] (d 7 relative to infection day) it was 399.5 ± 13.4 a; in data set [2] (d 14 relative to infection day), 984.4 ± 40.1 ab. For the same molecule, the Average daily gain in data set [2] (Days 0-7) was determined as 32.9 ± 1.4 g/day; in data set [2] (Days 8-14) it was 53.2 ± 2.5 g/day; in data set [2] (Days 14-17) it was 99.9 ± 6.2 g/day. The figures for the “Oocyst counts in droppings” value in data set [2] (d 0 relative to infection day), in data set [2] (d 7 relative to infection day) and in data set [4] were 0 gr^−1, 10,650 gr^−1 and 3,600 gr^−1, respectively. Moreover, in data set [2] (water treatment from 7 days of age, infection at 10 days, dose in label), the “growth performance / body weight of Eimeria-infected birds, in words” value is “no advantage in adding gallic acid if an AS treatment was given”. For the same molecule, in data set [3] (code: C uninfected, T infected, AS % antisolvent (0.5% = 5,000 ppm, 1% = 10,000 ppm), GA ppm gallic acid in water), the Water intake amounted to 132 ml chick^−1 dr^−1. Also, in data set [3] (in vivo), the signs of toxicity result is “No signs of toxicity whatsoever”.
